Experimental data: patent publication US20040235795A1, “Utilization of phosphatidylserine in the treatment of attention deficit syndrome (adhs)” (priority 2001, published 2004)
“Also recorded” adds a separate entry of the source.

Legend:
[1] = tested on: attention deficit syndrome (ADHS) probands; test: Open study of phosphatidylserine supplementation in ADHS probands (examples 1 to 4); format: in vivo, human
Description: Probands in an open study (examples 1 to 4) were selected with the aid of the Wender Utah Rating Scale (WURS) on the basis of their performance at school as well as clinical and physiological tests. They were assessed after 4, 6 and 8 weeks with the short-term supplementation and after 2, 4 and 6 months with the longer supplementation. The probands were examined for measurable differences with regard to concentration, attention, impulsivity, aggression potential and hyperactivity. Questionnaires were used to involve probands, parents and teachers in the evaluation.

ADHS patients = details: cited from earlier work
[2] = Example 3: 100 mg per day, 6 months, child, after the third month
[3] = high dosages 200 to 500 mg daily over 4 months

In the case of phosphatidylserine, the habituation effects ([1]; ADHS patients / probands with ADHS) is reported as “no habituation effects occurred”, the “general well-being (reported by proband)” value ([1]; Example 2: 200 mg three times daily, 7 weeks, child) is reported as “improvement” and the hyperactivity ([1]; Example 2: 200 mg three times daily, 7 weeks, child, end of supplementation) is reported as “marked decline”. The “attentiveness, concentration and memory performance as well as achievement at school” value ([1]; Example 3: 100 mg per day, 6 months, child) was “improved considerably”, the general well-being [1, 2] was “improvement” and the mood [1, 2] was “uplift”. For the same substance, the tolerance ([1]; even in high doses and over a longer supplementation period) was “no limitation whatsoever on its wellknown good tolerance; also recorded: well tolerated”, the “improvement of the ADHS symptoms” value (ADHS patients; 100 mg per day over a period of 2 months) was “did not result in a clear improvement” and the “side effects with drugs administered at the same time” value (ADHS patients; 100 to 500 mg daily) was “no side effects occurred”. For the same substance, the “probands with positive effect” value (ADHS patients; 200 to 300 mg daily (severe symptoms up to 500 mg daily) over 4 months, probands aged 3 to 19 years) was 25 of 27, the “improvement in single proband one” value (ADHS patients; [3]) was “not possible to make a clear statement about an improvement” and the “improvement in single proband two” value (ADHS patients; [3]) was “only a slight improvement”.
